In patent US9730944B2, “Antiviral activity of novel bicyclic heterocycles” (priority 2010, dated 2017) one finds EC50 and CC50 data, which are given here for six molecules.

What is called EC50 is the concentration at which the effect is half-maximal. Broadly, the CC50 is the concentration at which the toxic effect on the cells reaches its halfway point. A low value points to greater toxicity to the cells.

For one data set, the system named is hRV-2. Kind of data set: Rhinovirus type 2 antiviral assay in Hela Rh cells, MTS readout. The format is cell-based, Human rhinovirus. The conditions noted are these: Rhinovirus A, HRV2, HeLa Rh, Hela Rh cells; read-out: hRV-2 EC50.
A further data set has as its system hRV-9. Kind of data set: Rhinovirus type 9 antiviral assay in Hela Rh cells, MTS readout. The format is cell-based, Human rhinovirus. As to conditions: Human rhinovirus sp., HRV9, HeLa Rh, Hela Rh cells; read-out: hRV-9 EC50.
Another data set concerns hRV-14. The experiment in a line: Rhinovirus type 14 antiviral assay in Hela Rh cells, MTS readout. Type of data set: cell-based, Human rhinovirus. The conditions noted are these: Rhinovirus B, HRV14, HeLa Rh, Hela Rh cells; read-out: hRV-14 EC50.
A further data set has as its system hRV-15. The experiment in a line: Rhinovirus type 15 antiviral assay in Hela Rh cells, MTS readout. As to conditions: Human rhinovirus sp., HRV15, HeLa Rh, Hela Rh cells; read-out: hRV-15 EC50. Type of data set: cell-based, Human rhinovirus.
Another data set has as its system hRV-29. The experiment in a line: Rhinovirus type 29 antiviral assay in Hela Rh cells, MTS readout. Type of data set: cell-based. As to conditions: Human rhinovirus sp., HRV29, HeLa Rh, Hela Rh cells; read-out: hRV-29 EC50.
In the next data set the test system is hRV-39. The experiment in a line: Rhinovirus type 39 antiviral assay in Hela Rh cells, MTS readout. Type of data set: cell-based, Human rhinovirus. As to conditions: Human rhinovirus sp., HRV39, HeLa Rh, Hela Rh cells; read-out: hRV-39 EC50.
The next data set has as its system hRV-41. The experiment in a line: Rhinovirus type 41 antiviral assay in Hela Rh cells, MTS readout. The format is cell-based, Human rhinovirus. As to conditions: Human rhinovirus sp., HRV41, HeLa Rh, Hela Rh cells; read-out: hRV-41 EC50.
The next data set concerns hRV-42. Kind of data set: Rhinovirus type 42 antiviral assay in Hela Rh cells, MTS readout. Type of data set: cell-based, Human rhinovirus. As to conditions: Human rhinovirus sp., HRV42, HeLa Rh, Hela Rh cells; read-out: hRV-42 EC50.
The test system of another data set is hRV-45. Kind of data set: Rhinovirus type 45 antiviral assay in Hela Rh cells, MTS readout. The conditions noted are these: Human rhinovirus sp., HRV45, HeLa Rh, Hela Rh cells; read-out: hRV-45 EC50. The format is cell-based, Human rhinovirus.
Another data set concerns hRV-63. The experiment in a line: Rhinovirus type 63 antiviral assay in Hela Rh cells, MTS readout. The format is cell-based, Human rhinovirus. As to conditions: Human rhinovirus sp., HRV63, HeLa Rh, Hela Rh cells; read-out: hRV-63 EC50.
In the next data set the test system is hRV-70. The experiment in a line: Rhinovirus type 70 antiviral assay in Hela Rh cells, MTS readout. Type of data set: cell-based, Human rhinovirus. The conditions noted are these: Human rhinovirus sp., HRV70, HeLa Rh, Hela Rh cells; read-out: hRV-70 EC50.
Another data set concerns hRV-72. The experiment in a line: Rhinovirus type 72 antiviral assay in Hela Rh cells, MTS readout. The format is cell-based, Human rhinovirus. The conditions noted are these: Human rhinovirus sp., HRV72, HeLa Rh, Hela Rh cells; read-out: hRV-72 EC50.
In another data set the test system is hRV-85. The experiment in a line: Rhinovirus type 85 antiviral assay in Hela Rh cells, MTS readout. Type of data set: cell-based, Human rhinovirus. The conditions noted are these: Human rhinovirus sp., HRV85, HeLa Rh, Hela Rh cells; read-out: hRV-85 EC50.
In another data set the test system is hRV-86. Kind of data set: Rhinovirus type 86 antiviral assay in Hela Rh cells, MTS readout. The format is cell-based, Human rhinovirus. The conditions noted are these: Human rhinovirus sp., HRV86, HeLa Rh, Hela Rh cells; read-out: hRV-86 EC50.
The nature of data set [1]: Cytostatic/cytotoxic effect in Hela Rh cells (rhinovirus methodology, MTS). The conditions noted are these: human, CC50, Hela Rh cells.

Converted amounts (≈) assume the structure as drawn.

Turning to `Nc1nc(N2CCN(C(=O)COc3ccc(Cl)cc3)CC2)c2nc(CCCc3ccc(F)cc3)sc2n1` [Example 290, 1-(4-(5-amino-2-(3-(4-fluorophenyl)propyl)thiazolo[5,4-d]pyrimidin-7-yl)piperazin-1-yl)-2-(4-chlorophenoxy)ethanone], the EC50 is 49.2 µg/mL (≈ 91 µM) in the data set on hRV-2; more than 50 µg/mL in the data set on hRV-9; more than 50 µg/mL with hRV-14; more than 50 µg/mL with hRV-15; more than 50 µg/mL in the data set with hRV-29; more than 50 µg/mL in the data set on hRV-39. Moreover, the 50% effective concentration (EC50) in the data set on hRV-41, with hRV-42, in the data set with hRV-45, in the data set with hRV-63, in the data set with hRV-70 and with hRV-72 was more than 50 µg/mL in each case. Besides, the concentration giving a half-maximal response (EC50) with hRV-85 was 19.4 µg/mL (≈ 35.8 µM); with hRV-86, more than 50 µg/mL. Moreover, in data set [1], the CC50 was more than 50 µg/mL.

As for `Nc1nc(N2CCN(C(=O)COc3ccc(Cl)cc3)CC2)c2nc(CCCCc3ccc(F)cc3)sc2n1` [Example 292, 1-(4-(5-amino-2-(4-(4-fluorophenyl)butyl)thiazolo[5,4-d]pyrimidin-7-yl)piperazin-1-yl)-2-(4-chlorophenoxy)ethanone], the EC50 in the data set with hRV-2 was 13.6 µg/mL (≈ 24.6 µM); in the data set on hRV-9 it was more than 50 µg/mL; in the data set with hRV-14, more than 50 µg/mL; in the data set with hRV-15 it was more than 50 µg/mL; in the data set on hRV-29, more than 50 µg/mL; in the data set on hRV-39, 39.4 µg/mL (≈ 70.9 µM). Moreover, the 50% effective concentration (EC50) in the data set on hRV-41, with hRV-42, with hRV-45, in the data set on hRV-63, with hRV-70 and in the data set with hRV-72 was more than 50 µg/mL throughout. Moreover, the EC50 with hRV-85 was 10.3 µg/mL (≈ 18.6 µM); in the data set with hRV-86, more than 50 µg/mL. The molecule also gave a CC50 in data set [1] of more than 50 µg/mL.

Consider `COc1ccc(OCC(=O)N2CCN(c3nc(N)nc4sc(CCCCc5ccc(F)cc5)nc34)CC2)cc1` [Example 293, 1-(4-(5-amino-2-(4-(4-fluorophenyl)butyl)thiazolo[5,4-d]pyrimidin-7-yl)piperazin-1-yl)-2-(4-methoxyphenoxy)ethanone], for which the EC50 with hRV-2 was 12.4 µg/mL (≈ 22.5 µM); in the data set with hRV-9 it was more than 50 µg/mL; with hRV-14 it was more than 50 µg/mL; in the data set on hRV-15, more than 50 µg/mL; with hRV-29 it was more than 50 µg/mL; in the data set with hRV-39 it was more than 50 µg/mL. Moreover, the EC50 in the data set on hRV-41 is more than 50 µg/mL; in the data set on hRV-42, more than 50 µg/mL; in the data set with hRV-45, 35.4 µg/mL (≈ 64.2 µM); in the data set on hRV-63 it was 21.2 µg/mL (≈ 38.4 µM); with hRV-70, more than 50 µg/mL; with hRV-72, more than 50 µg/mL. Also, the EC50 in the data set on hRV-85 is 11.5 µg/mL (≈ 20.9 µM); with hRV-86, more than 50 µg/mL. Besides, the cytotoxic concentration (CC50) in data set [1] was more than 50 µg/mL.

`CCCCCc1nc2c(N3CCN(C(=O)COc4ccc(OC)cc4)CC3)nc(N)nc2s1` [Example 296, 1-(4-(5-amino-2-pentylthiazolo[5,4-d]pyrimidin-7-yl)piperazin-1-yl)-2-(4-methoxyphenoxy)ethanone]: the EC50 is 0.19 µg/mL (≈ 0.404 µM) with hRV-2; 0.2 µg/mL (≈ 0.425 µM) with hRV-9; 9.93 µg/mL (≈ 21.1 µM) with hRV-14; 0.44 µg/mL (≈ 0.935 µM) in the data set with hRV-15; 0.09 µg/mL (≈ 0.191 µM) in the data set with hRV-29; 0.04 µg/mL (≈ 0.085 µM) in the data set with hRV-39. Also, the half-maximal effective concentration (EC50) amounted to 7.02 µg/mL (≈ 14.9 µM) in the data set with hRV-41; 4.25 µg/mL (≈ 9.03 µM) with hRV-42; 4.13 µg/mL (≈ 8.78 µM) with hRV-45; 0.71 µg/mL (≈ 1.51 µM) with hRV-63; 2.53 µg/mL (≈ 5.38 µM) in the data set with hRV-70; 26.5 µg/mL (≈ 56.3 µM) in the data set with hRV-72. The concentration for a half-maximal effect (EC50) is 0.64 µg/mL (≈ 1.36 µM) in the data set on hRV-85 and 17.8 µg/mL (≈ 37.7 µM) in the data set on hRV-86. This molecule displayed a CC50 in data set [1] of more than 50 µg/mL.

Turning to `COc1ccc(OCC(=O)N2CCN(c3nc(N)nc4sc(CCc5ccc(Br)cc5)nc34)CC2)cc1` [Example 298, 1-(4-(5-amino-2-(4-bromophenethyl)thiazolo[5,4-d]pyrimidin-7-yl)piperazin-1-yl)-2-(4-methoxyphenoxy)ethanone], the EC50 amounted to 0.45 µg/mL (≈ 0.771 µM) with hRV-2; 0.55 µg/mL (≈ 0.943 µM) in the data set with hRV-9; 1.23 µg/mL (≈ 2.11 µM) in the data set on hRV-14; 1.61 µg/mL (≈ 2.76 µM) in the data set with hRV-15; 0.89 µg/mL (≈ 1.53 µM) in the data set on hRV-29; 0.45 µg/mL (≈ 0.771 µM) in the data set with hRV-39. For the same molecule, the EC50 in the data set with hRV-41 is 10.4 µg/mL (≈ 17.8 µM); in the data set on hRV-42 it was 1.2 µg/mL (≈ 2.06 µM); with hRV-45, 4.56 µg/mL (≈ 7.81 µM); with hRV-63 it was 3.9 µg/mL (≈ 6.68 µM); in the data set with hRV-70 it was 4.71 µg/mL (≈ 8.07 µM); in the data set with hRV-72, 6.52 µg/mL (≈ 11.2 µM). For the same molecule, the EC50 in the data set with hRV-85 worked out at 2.21 µg/mL (≈ 3.79 µM); in the data set with hRV-86 it was 4.58 µg/mL (≈ 7.85 µM). For the same molecule, the CC50 in data set [1] is more than 50 µg/mL.

In the case of `CC(C)(C)OC(=O)N[C@@H]1CCN(c2nc(N)nc3sc(-c4ccc(F)cc4)cc23)C1` [Example 338, (R)-tert-butyl 1-(2-amino-6-(4-fluorophenyl)thieno[2,3-d]pyrimidin-4-yl)pyrrolidin-3-ylcarbamate], the EC50 turned out to be 0.37 µg/mL (≈ 0.861 µM) with hRV-2; 0.78 µg/mL (≈ 1.82 µM) with hRV-9; 1.11 µg/mL (≈ 2.58 µM) in the data set with hRV-14; 1.52 µg/mL (≈ 3.54 µM) in the data set with hRV-15; 0.39 µg/mL (≈ 0.908 µM) with hRV-29; 0.38 µg/mL (≈ 0.885 µM) in the data set with hRV-39. Also, the EC50 is 27.4 µg/mL (≈ 63.7 µM) in the data set with hRV-41; 5.65 µg/mL (≈ 13.2 µM) in the data set with hRV-42; 4.23 µg/mL (≈ 9.85 µM) in the data set on hRV-45; 8.43 µg/mL (≈ 19.6 µM) with hRV-63; 3.65 µg/mL (≈ 8.5 µM) in the data set with hRV-70; 4.96 µg/mL (≈ 11.5 µM) in the data set with hRV-72. The concentration giving a half-maximal response (EC50) in the data set with hRV-85 worked out at 2.17 µg/mL (≈ 5.05 µM); in the data set on hRV-86 it was 2.37 µg/mL (≈ 5.52 µM). In data set [1], this molecule registered a CC50 of more than 50 µg/mL.
